Reference: article PMC11758266, “Lipid-Modulated, Graduated Inhibition of N-Glycosylation Pathway Priming Suggests Wide Tolerance of ER Proteostasis to Stress” (ACS Central Science, 2024)
“Also recorded” adds a separate entry of the source.

Target: T1, DPAGT1 (Homo sapiens, UniProt Q9H3H5)
T1 construct: full-length DPAGT1 bearing an additional tobacco etch virus (TEV) protease-cleavable N-terminal His6 tag; His6 with TEV protease cleavage site ([…]/S leader) (N, cleaved yes); made in house; host or cells: Spodoptera frugiperda Sf9 insect cells (baculovirus, pFB-LIC-Bse vector)
T1 sequence (Q9H3H5 with tags, fused parts or gaps): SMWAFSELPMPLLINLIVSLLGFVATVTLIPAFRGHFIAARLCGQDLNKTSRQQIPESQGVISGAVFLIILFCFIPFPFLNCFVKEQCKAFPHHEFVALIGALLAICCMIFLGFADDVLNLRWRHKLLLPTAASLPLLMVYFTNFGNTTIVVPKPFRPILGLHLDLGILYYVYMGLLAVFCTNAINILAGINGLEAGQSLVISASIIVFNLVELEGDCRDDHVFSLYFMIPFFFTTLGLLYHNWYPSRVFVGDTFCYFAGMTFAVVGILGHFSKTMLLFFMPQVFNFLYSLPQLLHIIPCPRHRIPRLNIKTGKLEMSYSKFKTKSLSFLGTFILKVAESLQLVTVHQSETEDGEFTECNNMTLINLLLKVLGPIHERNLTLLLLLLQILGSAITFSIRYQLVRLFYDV
Experiment: DPAGT1 radiometric in vitro activity assay (end point, phosphorimaging of radio-TLC)
Assay type: biochemical
Details: for % Activity of DPAGT1 in the presence of a tunicamycin analogue compared to a negative control (GFB): Table S1, analogue 1 µM, DPAGT1 1 µM, dolichyl monophosphate 50 µM, UDP-GlcNAc(1-14C) 50 µM, 37 °C, 21 min, three biological replicates; for DPAGT1 inhibition (in words) / activity at 1 µM: inhibitor 1 µM; for DPAGT1 inhibition (in words): enzyme:inhibitor 1:1, substrates 50 µM; for activity at 1 µM: enzyme:inhibitor 1:1, read-out: retained DPAGT1 activity (% of WT activity)
Source text: Figure 2 Design, synthesis and in vitro inhibitory activity of lipid-altered tunicamycins. (A) Structure of DPAGT1 in complex with tunicamycin[21] showing key interactions primarily along TMH5 that in concert with a Trp122 “lid” create the lipid-engagement site (blue). This engagement contrasts with a small, gated pocket below bounded primarily by Leu293 in which only smaller moieties (here an acetamide) are accommodated (red). (B) Guided by this structure, as an apparent snapshot of a Michaelis complex-like mode of binding, modulation at two acyl sites in the core scaffold was explored. […] Semisynthesis allowed generation of graduated lipid tunicamycin analogues through regiochemical differentiation in carbamoylation to generate two key divergent intermediates: Tun-0E,0G and Tun-0E,2G. Subsequent differential acylations allow for generation of both symmetric and asymmetric Tun-XE,YG analogues. Reagents and conditions: (a) Ac2O, pyridine; (b) Boc2O, DMAP, THF; (c) NaOMe, MeOH; (d) 4 M HCl in dioxane, MeOH; (e) HATU, DIPEA, octanoic acid, DMF; (f) HATU, DIPEA, carboxylic acid; (g) HATU, DIPEA, 2 × carboxylic acid. (C) Residual % in vitro activity of DPAGT1 following incubation with analogues [DPAGT1 ([…]), MgCl2 (5 mM), Tun analogue ([…]), dolichol phosphate ([…]), and UDP-GlcNAc(1-^14C) ([…]) in 1% OGNG/CHS/cardiolipin] was assessed through end point assay at 37 °C via phosphorimaging. These were determined on the basis of three biological replicates, each using three technical replicates. Error bars shown are standard deviations.
The intended targeting and graduated modulation of DPAGT1’s PNPT activity was assessed in vitro using a highly pure recapitulated source. Briefly, full-length DPAGT1 bearing an additional tobacco etch virus (TEV) protease-cleavable N-terminal His6 tag was expressed using a baculovirus (DH10Bac)/insect cell (Spodoptera frugiperda Sf9) system using a pFB-LIC-Bse expression vector. DPAGT1 is an integral transmembrane enzyme, and thus, after harvesting and lysis, protein was extracted from the expression host membrane fraction using octyl glucose neopentyl glycol (OGNG) (1% w/v) and cholesterylhemisuccinate (CHS) (0.1% w/v) before isolation and purification by immobilized metal affinity chromatography (IMAC) using a Co^2+-charged (“TALON”) resin and elution with an imidazole gradient. To ensure that there were no confounding effects of the His6 tag, this was then cleaved with TEV protease followed by reverse IMAC and size exclusion chromatography in sequence.
Radiometric bisubstrate analyses allowed excellent sensitivity under the conditions necessary for proper recapitulation of the activity. Purified DPAGT1 (1 μM) was incubated with both substrates, dolichol monophosphate and radiolabeled UDP-N-acetyl-D-[1-^14C]glucosamine, at 50 μM, and the activity was determined directly by end point phosphor detection of product dolichol-PP-N-acetyl-D-[1-^14C]glucosamine formation.
MgCl2, 10 mM imidazole (pH 8.0), 200 mM NaCl , 2 mM TCEP (added fresh), 5% Glycerol, 0.18% OGNG, 0.01 8% CHS, 0.0036% cardiolipin) and the protein was eluted with WB supplemented with 250 mM imidazole (pH 8.0). The eluted protein was desalted using PD-10 columns (GE Healthcare) pre-equilibrated with gel filtration buffer (GFB: 20 mM HEPES (pH […]
cardiolipin). Desalted protein was subsequently treated with 10:1 TEV protease (w:w, protein:enzyme) overnight at 4 ° C. The TEV protease treated protein was separated from the 6-His-tagged enzymes and uncleaved DPAGT1 by incubation for 1 h with Talon resin (prepared as described above) at 4 °C for 1 h. The resin was collected in a column, the flowthrough collected and the protein sample was centrifuged at 21,500 rpm in a Beckman TA25.5 rotor for 10 min at 4 ° C. The supernatant was then concentrated to 0.5 mL using a 30 kDa cutoff PES concentrator (Corning), with mixing every 5 mins during concentration. The […]

| Compound | % Activity of DPAGT1 in the presence of a tunicamycin analogue compared to a negative control (GFB) | DPAGT1 inhibition (in words) | activity at 1 µM |
| --- | --- | --- | --- |
| CCCCCCCCC(=O)N[C@H]1[C@H](O[C@H]2O[C@H](CO)[C@@H](O)[C@H](O)[C@H]2NC(=O)CC(C)C)O[C@H](C[C@@H](O)[C@H]2O[C@@H](n3ccc(=O)[nH]c3=O)[C@H](O)[C@@H]2O)[C@H](O)[C@@H]1O [Tun-9E,i5G] | 54.8% | increasing inhibitory activity in a graduated manner | 55% |
| CCCCCCCC(=O)N[C@H]1[C@H](O[C@H]2O[C@H](CO)[C@@H](O)[C@H](O)[C@H]2NC(C)=O)O[C@H](C[C@@H](O)[C@H]2O[C@@H](n3ccc(=O)[nH]c3=O)[C@H](O)[C@@H]2O)[C@H](O)[C@@H]1O [Tun-8E,2G] | 35.4% | increasing inhibitory activity in a graduated manner | 35% |
| CCCCCCCCC(=O)N[C@H]1[C@H](O[C@H]2O[C@H](CO)[C@@H](O)[C@H](O)[C@H]2NC(=O)CCCCCCCC)O[C@H](C[C@@H](O)[C@H]2O[C@@H](n3ccc(=O)[nH]c3=O)[C@H](O)[C@@H]2O)[C@H](O)[C@@H]1O [Tun-9E,9G] | 79.6% | little to no significant inhibition; also recorded: minimal DPAGT1 inhibition |  |
| CCCCCCCCC(=O)N[C@H]1[C@@H](O[C@@H]2O[C@H](C[C@@H](O)[C@H]3O[C@@H](n4ccc(=O)[nH]c4=O)[C@H](O)[C@@H]3O)[C@H](O)[C@H](O)[C@H]2NC(=O)CCC)O[C@H](CO)[C@@H](O)[C@@H]1O [Tun-4E,9G] | 93.6% | little to no significant inhibition; also recorded: minimal DPAGT1 inhibition |  |
| tunicamycin [reference compound] | 0.18% | complete inhibition |  |
